The source made the active and inactive calls. No rule for the calls is given here.
System: CCRIS mutagenicity, Ames/micronucleus/aberration tests
Assay: CCRIS mutagenicity studies
[1] = Test System: AMES SALMONELLA TYPHIMURIUM, Strain/Indicator: TA98, Metabolic Activation: NONE, Method: STANDARD PLATE
[2] = Test System: AMES SALMONELLA TYPHIMURIUM, Strain/Indicator: TA100, Metabolic Activation: NONE, Method: PREINCUBATION
[3] = Test System: AMES SALMONELLA TYPHIMURIUM, Strain/Indicator: TA100, Metabolic Activation: NONE, Method: STANDARD PLATE

**Q.** What does the source list for `CC(C)Nc1ccc(Nc2ccccc2)cc1`?
**A.** mutagenic call (Test System: AMES SALMONELLA TYPHIMURIUM, Strain/Indicator: TA98, Metabolic Activation: HAMSTER, LIVER, S-9, AROCLOR 1254 (10%), Method: PREINCUBATION): inactive; negative; mutagenic call (Test System: AMES SALMONELLA TYPHIMURIUM, Strain/Indicator: TA98, Metabolic Activation: NONE, Method: PREINCUBATION): inactive; negative; mutagenic call [1]: inactive; negative; mutagenic call (Test System: AMES SALMONELLA TYPHIMURIUM, Strain/Indicator: TA98, Metabolic Activation: RAT LIVER S-9, PHENOBARBITAL AND BETA-NAPHTHOFLAVONE, Method: PREINCUBATION): inactive; negative; mutagenic call (Test System: AMES SALMONELLA TYPHIMURIUM, Strain/Indicator: TA98, Metabolic Activation: RAT, LIVER, S-9, AROCLOR 1254 (10%), Method: PREINCUBATION): inactive; negative; mutagenic call (Test System: AMES SALMONELLA TYPHIMURIUM, Strain/Indicator: TA98, Metabolic Activation: S-9, Method: STANDARD PLATE): inactive; negative; mutagenic call (Test System: AMES SALMONELLA TYPHIMURIUM, Strain/Indicator: TA100, Metabolic Activation: HAMSTER, LIVER, S-9, AROCLOR 1254 (10%), Method: PREINCUBATION): inactive; negative; mutagenic call [2]: inactive; negative; mutagenic call [3]: inactive; negative; mutagenic call (Test System: AMES SALMONELLA TYPHIMURIUM, Strain/Indicator: TA100, Metabolic Activation: RAT LIVER S-9, PHENOBARBITAL AND BETA-NAPHTHOFLAVONE, Method: PREINCUBATION): inactive; negative; mutagenic call (Test System: AMES SALMONELLA TYPHIMURIUM, Strain/Indicator: TA100, Metabolic Activation: RAT, LIVER, S-9, AROCLOR 1254 (10%), Method: PREINCUBATION): inactive; negative; mutagenic call (Test System: AMES SALMONELLA TYPHIMURIUM, Strain/Indicator: TA100, Metabolic Activation: S-9, Method: STANDARD PLATE): inactive; negative; mutagenic call (Test System: AMES SALMONELLA TYPHIMURIUM, Strain/Indicator: TA1535, Metabolic Activation: HAMSTER, LIVER, S-9, AROCLOR 1254 (10%), Method: PREINCUBATION): inactive; negative; mutagenic call (Test System: AMES SALMONELLA TYPHIMURIUM, Strain/Indicator: TA1535, Metabolic Activation: NONE, Method: PREINCUBATION): inactive; negative; mutagenic call (Test System: AMES SALMONELLA TYPHIMURIUM, Strain/Indicator: TA1535, Metabolic Activation: RAT LIVER S-9, PHENOBARBITAL AND BETA-NAPHTHOFLAVONE, Method: PREINCUBATION): inactive; negative; mutagenic call (Test System: AMES SALMONELLA TYPHIMURIUM, Strain/Indicator: TA1535, Metabolic Activation: RAT, LIVER, S-9, AROCLOR 1254 (10%), Method: PREINCUBATION): inactive; negative; mutagenic call (Test System: AMES SALMONELLA TYPHIMURIUM, Strain/Indicator: TA1537, Metabolic Activation: HAMSTER, LIVER, S-9, AROCLOR 1254 (10%), Method: PREINCUBATION): inactive; negative; mutagenic call (Test System: AMES SALMONELLA TYPHIMURIUM, Strain/Indicator: TA1537, Metabolic Activation: NONE, Method: PREINCUBATION): inactive; negative; mutagenic call (Test System: AMES SALMONELLA TYPHIMURIUM, Strain/Indicator: TA1537, Metabolic Activation: RAT LIVER S-9, PHENOBARBITAL AND BETA-NAPHTHOFLAVONE, Method: PREINCUBATION): inactive; negative; mutagenic call (Test System: AMES SALMONELLA TYPHIMURIUM, Strain/Indicator: TA1537, Metabolic Activation: RAT, LIVER, S-9, AROCLOR 1254 (10%), Method: PREINCUBATION): inactive; negative; mutagenic call (Test System: AMES SALMONELLA TYPHIMURIUM, Strain/Indicator: TA1538, Metabolic Activation: NONE, Method: PREINCUBATION): inactive; negative; mutagenic call (Test System: AMES SALMONELLA TYPHIMURIUM, Strain/Indicator: TA1538, Metabolic Activation: RAT LIVER S-9, PHENOBARBITAL AND BETA-NAPHTHOFLAVONE, Method: PREINCUBATION): inactive; negative; mutagenic call (Test System: E.COLI, Strain/Indicator: WP2UVRA, Metabolic Activation: NONE, Method: PREINCUBATION): inactive; negative; mutagenic call (Test System: E.COLI, Strain/Indicator: WP2UVRA, Metabolic Activation: RAT LIVER S-9, PHENOBARBITAL AND BETA-NAPHTHOFLAVONE, Method: PREINCUBATION): inactive; negative

**Q.** Which results are given for `C=Cc1ccncc1`?
**A.** mutagenic call [1]: inactive; negative; mutagenic call (Test System: AMES SALMONELLA TYPHIMURIUM, Strain/Indicator: TA98, Metabolic Activation: RAT, LIVER, S-9, AROCLOR 1254, Method: STANDARD PLATE): inactive; negative; mutagenic call [3]: inactive; negative; mutagenic call (Test System: AMES SALMONELLA TYPHIMURIUM, Strain/Indicator: TA100, Metabolic Activation: RAT, LIVER, S-9, AROCLOR 1254, Method: STANDARD PLATE): inactive; negative; mutagenic call (Test System: AMES SALMONELLA TYPHIMURIUM, Strain/Indicator: TA1535, Metabolic Activation: NONE, Method: STANDARD PLATE): inactive; negative; mutagenic call (Test System: AMES SALMONELLA TYPHIMURIUM, Strain/Indicator: TA1535, Metabolic Activation: RAT, LIVER, S-9, AROCLOR 1254, Method: STANDARD PLATE): inactive; negative; mutagenic call (Test System: AMES SALMONELLA TYPHIMURIUM, Strain/Indicator: TA1538, Metabolic Activation: NONE, Method: STANDARD PLATE): inactive; negative; mutagenic call (Test System: AMES SALMONELLA TYPHIMURIUM, Strain/Indicator: TA1538, Metabolic Activation: RAT, LIVER, S-9, AROCLOR 1254, Method: STANDARD PLATE): inactive; negative; mutagenic call (Test System: UDS RAT HEPATOCYTES, Strain/Indicator: THY INCORP, Metabolic Activation: NONE): inactive; negative

**Q.** How did the mutagenic call [2] turn out when `Cl/C=C(\Cl)SCc1ccccc1` was run?
**A.** inactive; negative

**Q.** What about the mutagenic call (Test System: AMES SALMONELLA TYPHIMURIUM, Strain/Indicator: TA100, Metabolic Activation: RAT, LIVER, S-9, AROCLOR 1254, Method: PREINCUBATION) of the same compound?
**A.** active; positive

**Q.** For `COc1c(N2C[C@@H]3CCCN[C@@H]3C2)c(F)cc2c(=O)c(C(=O)O)cn(C3CC3)c12`, which mutagenic call (Test System: CHINESE HAMSTER V-79, Strain/Indicator: V-79 (HGPRT)/6-THIOGUANINE, Metabolic Activation: NONE, Method: STANDARD PLATE) is on record?
**A.** inactive; negative

— PubChem BioAssay AID1259407 (Chemical Carcinogenesis Research Information System (CCRIS), 2018)
